Experimental data as given in patent publication US20230265151A1, “GIP/GLP1 CO-AGONIST COMPOUNDS” (priority 2020, published 2023).
Read-outs that look alike come from different tables or passages of the source.

Legend:
[1] = molecular target: T1, human Gcg receptor (hGcgR) (Homo sapiens, UniProt P47871); assay: [125I]-Glucagon binding, SPA with membranes of HEK293 cells expressing hGcgR
T1 construct: expressed in transfected cells; crude membranes

[2] = molecular target: hGLP-1R (Homo sapiens, UniProt P43220); assay: Functional cAMP formation (HTRF) in HEK-293 clonal cells expressing hGLP-1R, 0.1% bovine casein, without or with 1.0% human serum albumin; format: cell-based; parameters: expressed in transfected cells; settings: for EC50: geometric mean
Sequence of hGLP-1R (P43220 24-463): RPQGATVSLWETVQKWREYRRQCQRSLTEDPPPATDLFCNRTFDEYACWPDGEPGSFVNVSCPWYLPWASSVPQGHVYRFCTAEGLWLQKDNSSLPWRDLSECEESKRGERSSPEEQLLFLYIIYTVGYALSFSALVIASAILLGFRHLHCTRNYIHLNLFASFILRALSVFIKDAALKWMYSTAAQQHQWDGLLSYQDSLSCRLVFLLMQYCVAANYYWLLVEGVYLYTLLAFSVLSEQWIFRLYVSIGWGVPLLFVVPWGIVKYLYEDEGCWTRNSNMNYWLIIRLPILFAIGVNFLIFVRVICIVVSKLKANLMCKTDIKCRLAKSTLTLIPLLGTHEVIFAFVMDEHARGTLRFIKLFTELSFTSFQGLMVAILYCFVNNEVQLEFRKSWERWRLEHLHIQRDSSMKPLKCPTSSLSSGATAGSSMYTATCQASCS
Procedure, shortened: (§1)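 Cells were stimulated with peptide for 30 min at 37° C, then intracellular cAMP was measured by competitive HTRF (665/620 nm ratio) and converted to nM using a cAMP standard curve. Relative EC50 and Emax came from four-parameter logistic fits of percent maximal response against peptide concentration.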

[3] = molecular target: T2, human GLP-1 receptor (hGLP-1R) (Homo sapiens, UniProt P43220); assay: [125I]-GLP-1 binding, SPA with membranes of HEK293 cells expressing hGLP-1R
T2 construct: expressed in transfected cells; crude membranes

[4] = molecular target: T3, hGCGR (Homo sapiens, UniProt P47871); assay: Functional cAMP formation (HTRF) in HEK-293 clonal cells expressing hGCGR, 0.1% bovine casein, without or with 1.0% human serum albumin; format: cell-based; settings: geometric mean
T3 construct: expressed in transfected cells
T3 sequence (P47871 26-477): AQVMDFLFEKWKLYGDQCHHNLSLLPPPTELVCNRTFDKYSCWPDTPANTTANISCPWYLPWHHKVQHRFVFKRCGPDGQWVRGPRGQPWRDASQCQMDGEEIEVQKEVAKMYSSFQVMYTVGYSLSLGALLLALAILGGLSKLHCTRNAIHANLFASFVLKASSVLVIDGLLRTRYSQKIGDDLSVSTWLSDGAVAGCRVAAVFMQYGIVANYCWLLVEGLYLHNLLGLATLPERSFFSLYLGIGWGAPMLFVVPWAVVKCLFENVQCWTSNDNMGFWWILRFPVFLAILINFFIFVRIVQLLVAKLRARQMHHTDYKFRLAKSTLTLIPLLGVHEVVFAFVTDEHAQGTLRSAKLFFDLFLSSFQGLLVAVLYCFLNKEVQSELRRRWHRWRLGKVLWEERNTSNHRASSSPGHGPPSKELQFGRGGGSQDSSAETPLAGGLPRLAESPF
Procedure, shortened: as §1

[5] = molecular target: T4, hGIPR (Homo sapiens, UniProt P48546); assay: Functional cAMP formation (HTRF) in HEK-293 clonal cells expressing hGIPR, 0.1% bovine casein, without or with 1.0% human serum albumin; format: cell-based; settings: for EC50: geometric mean
T4 construct: expressed in transfected cells
T4 sequence (P48546 22-466): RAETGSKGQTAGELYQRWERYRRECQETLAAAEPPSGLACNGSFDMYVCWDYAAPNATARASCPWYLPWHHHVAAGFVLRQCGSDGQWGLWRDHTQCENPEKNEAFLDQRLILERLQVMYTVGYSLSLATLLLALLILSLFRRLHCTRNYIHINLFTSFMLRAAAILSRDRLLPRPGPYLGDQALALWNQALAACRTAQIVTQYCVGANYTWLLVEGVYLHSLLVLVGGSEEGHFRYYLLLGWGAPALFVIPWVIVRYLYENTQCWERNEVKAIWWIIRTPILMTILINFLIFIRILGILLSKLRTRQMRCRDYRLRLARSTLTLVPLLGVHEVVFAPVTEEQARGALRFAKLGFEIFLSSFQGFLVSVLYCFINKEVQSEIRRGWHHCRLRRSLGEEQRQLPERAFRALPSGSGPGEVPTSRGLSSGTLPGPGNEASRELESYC
Procedure, shortened: as §1

[6] = human GcgR, geometric mean (SEM, n), read-out: Binding Affinity Ki, nM (SEM, n) hGCGR
[7] = HEK293, percent of maximal response to GLP-1(7-36)NH2, 37° C., 0.1% bovine casein, arithmetic mean, read-out: hGLP-1R Emax, % ± SEM
[8] = human GLP-1R, geometric mean (SEM, n), read-out: Binding Affinity Ki, nM (SEM, n) hGLP-1R
[9] = 0.1% bovine casein and 1.0% human serum albumin, 37° C., read-out: hGCGR EC50, nM (SEM, n)
[10] = cAMP, incubated at 37° C., 0.1% bovine casein (no human serum albumin), read-out: hGCGR EC50, nM (SEM, n)
[11] = cAMP, incubated at 37° C., 0.1% bovine casein (no human serum albumin), read-out: hGIPR EC50, nM (SEM, n)
[12] = cAMP, incubated at 37° C., 0.1% bovine casein (no human serum albumin), read-out: hGLP-1R EC50, nM (SEM, n)

T1 sequence (P47871 26-477): as the sequence (P47871 26-477) above

Row | Structure (SMILES) | Ki [1, 6] [nM] | Emax [2, 7] [%] | Ki [3, 8] [nM] | EC50 [4, 9] [nM] | EC50 [4, 10] [nM] | EC50 [5, 11] [nM] | EC50 [2, 12] [nM] | other results
1 | CC[C@H](C)[C@H](NC(=O)[C@H](CC(C)C)NC(=O)[C@](C)(Cc1ccc(O)cc1)NC(=O)[C@@H](CCC(=O)O)NC(=O)[C@@H](NC(=O)[C@H](Cc1ccccc1)NC(=O)[C@H](CCC(=O)O)NC(=O)C(C)(C)NC(=O)[C@H](CCC(N)=O)NC(=O)[C@H](C)NC(=O)[C@H](CCCCNC(=O)COCCOCCNC(=O)COCCOCCNC(=O)CC[C@H](NC(=O)CCCCCCCCCOc1ccc(C(=O)O)cc1)C(=O)O)NC(=O)[C@H](CCCN)NC(=O)[C@H](CC(=O)O)NC(=O)[C@H](CC(C)C)NC(=O)[C@](C)(CC(C)C)NC(=O)[C@@H](NC(=O)[C@H](CO)NC(=O)[C@H](Cc1ccncc1)NC(=O)[C@H](CC(=O)O)NC(=O)[C@H](CO)NC(=O)[C@@H](NC(=O)[C@](C)(Cc1ccccc1F)NC(=O)[C@@H](NC(=O)CNC(=O)[C@H](CCC(=O)O)NC(=O)C(C)(C)NC(=O)[C@@H](N)Cc1ccc(O)cc1)[C@@H](C)O)[C@@H](C)O)[C@@H](C)CC)[C@@H](C)CC)C(=O)N[C@@H](CCC(=O)O)C(=O)NCC(=O)NCC(=O)N[C@@H](CCCCNC(=O)COCCOCCNC(=O)COCCOCCNC(=O)CC[C@H](NC(=O)CCCCCCCCCOc1ccc(C(=O)O)cc1)C(=O)O)C(=O)N[C@@H](CO)C(=O)N[C@@H](CO)C(=O)NCC(=O)N[C@@H](C)C(=O)N1CCC[C@H]1C(=O)N1CCC[C@H]1C(=O)N1CCC[C@H]1C(=O)N[C@@H](CO)C(N)=O [Example 2] |  |  |  |  |  |  |  | Ki [1]: > 958 nM; Emax ([2]; HEK293, read-out: hGLP-1R Emax, % ± SEM, percent of maximal response to GLP-1(7-36)NH2, 37° C., 0.1% bovine casein, arithmetic mean): 93.1 ± 5.83%; EC50 ([2]; hGLP-1R EC50, nM (SEM, n), 0.1% bovine casein and 1.0% human serum albumin, 37° C.): 32.1 nM; EC50 ([2]; hGLP-1R EC50, nM (SEM, n), cAMP, incubated at 37° C., 0.1% bovine casein (no human serum albumin)): 1.14 nM; Ki [3]: 1.04 nM; EC50 ([4]; hGCGR EC50, nM (SEM, n), 0.1% bovine casein and 1.0% human serum albumin, 37° C.): > 9950 nM; EC50 ([4]; hGCGR EC50, nM (SEM, n), cAMP, incubated at 37° C., 0.1% bovine casein (no human serum albumin)): > 9950 nM; Emax ([5]; HEK293, read-out: hGIPR Emax, % ± SEM, 0.1% bovine casein and 1.0% human serum albumin, 37° C., percent of maximal response to GIP(1-42)NH2): 87.8 ± 5.11%; Emax ([5]; HEK293, read-out: hGIPR Emax, % ± SEM, percent of maximal response to GIP(1-42)NH2, 37° C., 0.1% bovine casein, arithmetic mean): 93 ± 0.813%; EC50 ([5]; hGIPR EC50, nM (SEM, n), 0.1% bovine casein and 1.0% human serum albumin, 37° C.): 0.659 nM; EC50 ([5]; hGIPR EC50, nM (SEM, n), cAMP, incubated at 37° C., 0.1% bovine casein (no human serum albumin)): 0.0154 nM
2 | CC[C@H](C)[C@H](NC(=O)[C@H](CC(C)C)NC(=O)[C@](C)(Cc1ccc(O)cc1)NC(=O)[C@@H](CCC(=O)O)NC(=O)[C@@H](NC(=O)[C@H](Cc1ccccc1)NC(=O)[C@H](CCC(=O)O)NC(=O)C(C)(C)NC(=O)[C@H](CCC(N)=O)NC(=O)[C@H](C)NC(=O)[C@H](CCCCNC(=O)COCCOCCNC(=O)COCCOCCNC(=O)COCCOCCNC(=O)CC[C@H](NC(=O)CCCCCCCCCCCCC(=O)O)C(=O)O)NC(=O)[C@H](CCCN)NC(=O)[C@H](CC(=O)O)NC(=O)[C@H](CC(C)C)NC(=O)[C@](C)(CC(C)C)NC(=O)[C@@H](NC(=O)[C@H](CO)NC(=O)[C@H](Cc1ccncc1)NC(=O)[C@H](CC(=O)O)NC(=O)[C@H](CO)NC(=O)[C@@H](NC(=O)[C@](C)(Cc1ccccc1F)NC(=O)[C@@H](NC(=O)CNC(=O)[C@H](CCC(=O)O)NC(=O)C(C)(C)NC(=O)[C@@H](N)Cc1ccc(O)cc1)[C@@H](C)O)[C@@H](C)O)[C@@H](C)CC)[C@@H](C)CC)C(=O)N[C@@H](CCC(=O)O)C(=O)NCC(=O)NCC(=O)N[C@@H](CCCCNC(=O)COCCOCCNC(=O)COCCOCCNC(=O)COCCOCCNC(=O)CC[C@H](NC(=O)CCCCCCCCCCCCC(=O)O)C(=O)O)C(=O)N[C@@H](CO)C(=O)N[C@@H](CO)C(=O)NCC(=O)N[C@@H](C)C(=O)N1CCC[C@H]1C(=O)N1CCC[C@H]1C(=O)N1CCC[C@H]1C(=O)N[C@@H](CO)C(N)=O [Example 30] | > 966 | 97.8 ± 10.7 | 2.66 | > 9950 | > 9950 | 0.0175 |  | EC50 ([2]; 0.1% bovine casein and 1.0% human serum albumin, 37° C., read-out: hGLP-1R EC50, nM (SEM, n)): 18.3 nM; Emax ([2]; HEK293, 0.1% bovine casein and 1.0% human serum albumin, 37° C., percent of maximal response to GLP-1(7-36)NH2, read-out: hGLP-1R Emax, % ± SEM): 96.5 ± 0.219%; EC50 ([5]; 0.1% bovine casein and 1.0% human serum albumin, 37° C., read-out: hGIPR EC50, nM (SEM, n)): 0.337 nM
3 | CC[C@H](C)[C@H](NC(=O)[C@H](CC(C)C)NC(=O)[C@](C)(Cc1ccc(O)cc1)NC(=O)[C@@H](CCC(=O)O)NC(=O)[C@@H](NC(=O)[C@H](Cc1ccccc1)NC(=O)[C@H](CCC(=O)O)NC(=O)C(C)(C)NC(=O)[C@H](CCC(N)=O)NC(=O)[C@H](C)NC(=O)[C@H](CCCCNC(=O)COCCOCCNC(=O)COCCOCCNC(=O)CC[C@H](NC(=O)CCCCCCCCCCCCC(=O)O)C(=O)O)NC(=O)[C@H](CCCN)NC(=O)[C@H](CC(=O)O)NC(=O)[C@H](CC(C)C)NC(=O)[C@](C)(CC(C)C)NC(=O)[C@@H](NC(=O)[C@H](CO)NC(=O)[C@@](C)(NC(=O)[C@H](CC(=O)O)NC(=O)[C@H](CO)NC(=O)[C@@H](NC(=O)[C@](C)(Cc1ccccc1F)NC(=O)[C@@H](NC(=O)CNC(=O)[C@H](CCC(=O)O)NC(=O)C(C)(C)NC(=O)[C@@H](N)Cc1ccc(O)cc1)[C@@H](C)O)[C@@H](C)O)C(C)C)[C@@H](C)CC)[C@@H](C)CC)C(=O)N[C@@H](CCC(=O)O)C(=O)NCC(=O)NCC(=O)N[C@@H](CCCCNC(=O)COCCOCCNC(=O)COCCOCCNC(=O)CC[C@H](NC(=O)CCCCCCCCCCCCC(=O)O)C(=O)O)C(=O)N[C@@H](CO)C(=O)N[C@@H](CO)C(=O)NCC(=O)N[C@@H](C)C(=O)N1CCC[C@H]1C(=O)N1CCC[C@H]1C(=O)N1CCC[C@H]1C(=O)N[C@@H](CO)C(N)=O [Example 52] | > 966 |  | 1.16 | > 9950 | > 9950 |  | 0.384 | Emax ([5]; HEK293, 0.1% bovine casein and 1.0% human serum albumin, 37° C., percent of maximal response to GIP(1-42)NH2, read-out: hGIPR Emax, % ± SEM): 87.6%
4 | CCCCCCCCCCCC(=O)N[C@@H](CCC(=O)NCCOCCOCC(=O)NCCOCCOCC(=O)NCCCC[C@H](NC(=O)[C@H](CCCN)NC(=O)[C@H](CC(=O)O)NC(=O)[C@H](CC(C)C)NC(=O)[C@](C)(CC(C)C)NC(=O)[C@@H](NC(=O)[C@H](CO)NC(=O)[C@H](Cc1ccncc1)NC(=O)[C@H](CC(=O)O)NC(=O)[C@H](CO)NC(=O)[C@@H](NC(=O)[C@](C)(Cc1ccccc1F)NC(=O)[C@@H](NC(=O)CNC(=O)[C@H](CCC(=O)O)NC(=O)C(C)(C)NC(=O)[C@@H](N)Cc1ccc(O)cc1)[C@@H](C)O)[C@@H](C)O)[C@@H](C)CC)C(=O)N[C@@H](C)C(=O)N[C@@H](CCC(N)=O)C(=O)NC(C)(C)C(=O)N[C@@H](CCC(=O)O)C(=O)N[C@@H](Cc1ccccc1)C(=O)N[C@H](C(=O)N[C@H](CCC(=O)O)C(=O)N[C@@](C)(Cc1ccc(O)cc1)C(=O)N[C@@H](CC(C)C)C(=O)N[C@H](C(=O)N[C@@H](CCCCNC(=O)COCCOCCNC(=O)COCCOCCNC(=O)CC[C@H](NC(=O)CCCCCCCCCCC)C(=O)O)C(=O)NCC(=O)NCC(=O)N1CCC[C@H]1C(=O)N[C@@H](CO)C(=O)N[C@@H](CO)C(=O)NCC(=O)N[C@@H](C)C(=O)N1CCC[C@H]1C(=O)N1CCC[C@H]1C(=O)N1CCC[C@H]1C(=O)N[C@@H](CO)C(N)=O)[C@@H](C)CC)[C@@H](C)CC)C(=O)O [Example 139] | 109 | 111 | 0.268 |  | > 9950 | 0.0108 | 0.141 | 
